Reference: US20210045420A1, “SWEETENER AND FLAVOR COMPOSITIONS, METHODS OF MAKING AND METHODS OF USE THEREOF” (EPC Natural Products Co., Ltd., priority 2018, published 2021)
“Also recorded” adds a separate entry of the source. Residues, ends and D or L forms follow the SMILES beside them.

Experiments:
[1] = Sensory evaluation of GSGs and SGs, thaumatin, NHDC and combinations, Example 255; conditions: combinations of EPCalin (Thaumatin 45%) and NHDC dissolved in water
Description: 4.5 ppm Thaumatin (equivalent to 10 ppm EPCalin) was dissolved in water. Increasing amounts of NHDC (1-5 ppm) were added to the solution and the sensory properties were evaluated.
50 ppm (GSGs and SGs) were dissolved in water. Increasing amounts of NHDC (1-5 ppm) were added to the solution and the sensory properties were evaluated.
50 ppm (GSGs and SGs) and 4.5 ppm Thaumatin (equivalent to 10 ppm EPCalin) were dissolved in water. Increasing amounts of NHDC (1-5 ppm) were added to the solution and the sensory properties were evaluated.
Sweetness intensity was rated on 5-point scale
Sweetness intensity was rated on a 5-point scale

[2] = sweetness depends on the tested concentration compared with sucrose; cited from earlier work
[3] = Sensory evaluation of the samples prepared in Example 50 (Example 52; panel of 4, score 0-5 or +/++/+++); format: in vivo, human; set-up: key to Intensity of Smell: “+” for slight; “++” for moderate; “+++” for very strong
Description: The reaction partner (amino acid, carbohydrate source) were dissolved/suspended in the reaction solvent and transferred into a glass beaker filled with sand pre-heated for at least 30 minutes at the reaction temperature in a drying oven. After the planned reaction time, the vials were transferred into ice water. After cooling to room temperature, sensory analysis and analytical characterization was performed.
For evaluation of the taste profile, the samples were tested by a panel of four people. 1 trained taster tasted independently the samples first. The taster was asked to describe the taste profile and score 0-5 according to the increasing sugar likeness, bitterness, aftertaste and lingering taste profiles. The first taster was allowed to re-taste, and then make notes for the sensory attributes perceived. Afterwards, another 3 tasters tasted and the attributes were noted and discussed openly to find a suitable description. In case that more than 1 taster disagreed with the results, the tasting was repeated. In some sensory test results (above), the taste rating was expressed by “+”, which means the intensity of the factors is shown by three levels. “+” for slight, “++” for moderate and “+++” for very strong.

[4] = Assay to test DPPH radical-scavenging activity, Example 65; format: biochemical; conditions: Reb-A with or without amino acids, 100° C., FIG. 49 and FIG. 50
Description: 1 mg 1,1-Diphenyl-2-picrylhydrazyl radical (DPPH)/ml ethanol, dilution to assay concentration were prepared in ethanol (40 μg/mL); Calibration samples were prepared with Ascorbic acid in a concentration of 0-10 μg/mL; as a negative control sample, water was used.
Samples in aqueous solution were used as such or diluted with water.
A 0.1 ml sample (or calibration standard) was mixed with 3.9 ml solution of DPPH (100 μMolar) and reacted while protected from light at room temperature for 30 min. Absorbance was determined at 517 nm against ethanol.
10 mM of amino acid and/or 10 mM sugar were dissolved in 10 ml 0.1 mM KH2PO4-buffer, pH=7.8.
The samples were kept at 100° C. in sealed glass vials (Pyrex 15 ml with screw caps) for 0 (before reaction), 2.5 or 5.0 hours. Thereafter the samples were transferred to an ice water bath and cooled down to room temperature. These samples were diluted 1:10 and used for the test assay for anti-oxidant potential.

[5] = Table 52.1, samples prepared in Example 50
[6] = Table 52.2, reaction in 1 ml water + 9 ml Glycerin, 0.67 h, 100° C. (Table 50.2)
[7] = Table 52.5, reaction in 1 ml water + 9 ml Glycerin, 2.0 h, 120° C. (Table 50.5)
[8] = Table 52.3, reaction in 1 ml water + 9 ml Glycerin, 0.67 h, 100° C. (Table 50.3)

For `COc1ccc(CCC(=O)c2c(O)cc(O[C@@H]3O[C@H](CO)[C@@H](O)[C@H](O)[C@H]3O[C@@H]3O[C@@H](C)[C@H](O)[C@@H](O)[C@H]3O)cc2O)cc1O` [10 ppm NHDC], the Sensory evaluation [1] was “Sweet, steep onset of sweetness, no lingering”.
In the case of `O=S(=O)([O-])NC1CCCCC1.[Na+]` [sodium cyclamate], the “times sweeter than sucrose / sugar” value [2] is given as “about 30 times”.
In the case of `C[C@H](CC[C@@H](O[C@@H]1O[C@H](CO[C@@H]2O[C@H](CO)[C@@H](O)[C@H](O)[C@H]2O)[C@@H](O)[C@H](O)[C@H]1O[C@@H]1O[C@H](CO)[C@@H](O)[C@H](O)[C@H]1O)C(C)(C)O)[C@H]1CC[C@@]2(C)[C@@H]3CC=C4[C@@H](CC[C@H](O[C@@H]5O[C@H](CO[C@@H]6O[C@H](CO)[C@@H](O)[C@H](O)[C@H]6O)[C@@H](O)[C@H](O)[C@H]5O)C4(C)C)[C@]3(C)[C@H](O)C[C@]12C` [mogroside V], the “times sweeter than sucrose / sugar” value [2] is listed as 256-344 times.
For `N[C@@H](CCC(=O)O)C(=O)O` [167 mMol Glu], the Smell [3, 5] was “caramel” and the Taste [3, 5] was “Sweet”.
In the case of `C=C1C[C@@]23CC[C@H]4[C@@](C)(CCC[C@@]4(C)C(=O)O[C@@H]4O[C@H](CO)[C@@H](O)[C@H](O)[C@H]4O)[C@@H]2CC[C@]1(O[C@@H]1O[C@H](CO)[C@@H](O)[C@H](O[C@@H]2O[C@H](CO)[C@@H](O)[C@H](O)[C@H]2O)[C@H]1O[C@@H]1O[C@H](CO)[C@@H](O)[C@H](O)[C@H]1O)C3` [0.05 mMol Reb-A], the Smell [3, 6] is reported as “neutral/unpleasant” and the Taste [3, 6] is reported as “sweet”.
For Thaumatin, the “times sweeter than sucrose / sugar” value [2] is listed as “about 2000 times”.
For `C=C1C[C@@]23CC[C@H]4[C@@](C)(CCC[C@@]4(C)C(=O)O[C@@H]4O[C@H](CO)[C@@H](O)[C@H](O)[C@H]4O)[C@@H]2CC[C@]1(O[C@@H]1O[C@H](CO)[C@@H](O)[C@H](O[C@@H]2O[C@H](CO)[C@@H](O)[C@H](O)[C@H]2O)[C@H]1O[C@@H]1O[C@H](CO)[C@@H](O)[C@H](O)[C@H]1O)C3` [Reb-A, Rebaudioside A], the anti-oxidant properties [4] was “substantial anti-oxidant properties”.
For `C=C1C[C@@]23CC[C@H]4[C@@](C)(CCC[C@@]4(C)C(=O)O[C@@H]4O[C@H](CO)[C@@H](O)[C@H](O)[C@H]4O)[C@@H]2CC[C@]1(O[C@@H]1O[C@H](CO)[C@@H](O)[C@H](O)[C@H]1O)C3` [Rubusoside], the “times sweeter than sucrose / sugar” value [2] is given as 200 times.
In the case of `O=C[C@H](O)[C@H]1OC(=O)[C@@H](O)[C@H]1O` [0.1 mMol GlucLac], the “Intensity of Smell” value [3, 7] is reported as “+++”, the Smell [3, 7] is reported as “Burnt sugar” and the Taste [3, 7] is reported as “Bitter”.
In the case of `C[C@H](N)C(=O)O` [0.1 mMol Ala], the Smell [3, 6] is reported as “Agar” and the Taste [3, 6] is reported as “sweet”.
With `N[C@@H](Cc1ccccc1)C(=O)O` [0.1 mMol Phe] the Smell [3, 6] was “flowery/bloomy,; also recorded: caramel”, the Taste [3, 6] was “sweet” and the “Intensity of Smell” value [3, 7] was “+”. The Smell [3, 7] was “Caramel, burnt” and the Taste [3, 7] was “sweet”.
In the case of `OC[C@@H](O)[C@@H](O)[C@H](O)[C@H](O)CO` [Mannitol], the “times sweeter than sucrose / sugar” value [2] is listed as 0.55-0.65 times.
For `NCCCC[C@H](N)C(=O)O` [0.1 mMol Lys], the Smell [3, 8] was “Popcorn” and the Taste [3, 8] was “Sweet”.
With `N[C@@H](Cc1ccccc1)C(=O)O` [Phe 60 mMol] the Smell [3, 5] was “flowery/bloomy-caramel” and the Taste [3, 5] was “Sweet”.
For `C[C@H](CC[C@@H](O[C@@H]1O[C@H](CO)[C@@H](O)[C@H](O)[C@H]1O[C@@H]1O[C@H](CO)[C@@H](O)[C@H](O)[C@H]1O)C(C)(C)O)[C@H]1CC[C@@]2(C)[C@H]3CC=C4[C@@H](CC[C@H](O[C@@H]5O[C@H](CO[C@@H]6O[C@H](CO)[C@@H](O)[C@H](O)[C@H]6O)[C@@H](O)[C@H](O)[C@H]5O)C4(C)C)[C@]3(C)[C@H](O)C[C@]12C` [mogroside IV], the “times sweeter than sucrose / sugar” value [2] is listed as 126 times.
In the case of `COC(=O)[C@H](Cc1ccccc1)NC(=O)[C@@H](N)CC(=O)O` [Aspartame] (H-Asp-Phe-OMe), the “times sweeter than sucrose / sugar” value [2] is given as 160-200 times.
In the case of `OC[C@H]1O[C@H](O[C@]2(CCl)O[C@H](CCl)[C@@H](O)[C@@H]2O)[C@H](O)[C@@H](O)[C@H]1Cl` [sucralose], the “times sweeter than sucrose / sugar” value [2] is listed as “about 600 times”.
